Laboratory results taken from US9868692B2, “Compounds and compositions for intracellular delivery of therapeutic agents” (MODERNATX, Inc., priority 2015, dated 2018).

Columns and labels:
[1] = Residual lipid level in liver of rats (UPLC-MS quantification); type: in vivo; settings: rat, liver, iv, intravenous, 48 hours, read-out: Liver level
Description: (§1) To pre-weighed tissues, Milli-Q water was added (900 μL water per 100 mg tissue). Tissues were homogenized using an Omni probe homogenizer until uniform. 50 μL of samples and matrix calibration standards were aliquoted into a 96-well plate. 50 μL of blank matrix for matrix blanks and control blanks were aliquoted. 400 μL IS spiking solution were manually added to all samples except matrix blanks. 400 μL of 50:50 ACN:IPA were manually added to matrix blanks. The plate was covered and the samples vortexed and centrifuged for 5 minutes at >3000 rpm. 200 μL of the samples were transferred into a clean 96-well plate for analysis. […] Detection was based on electrospray ionization (ESI) in positive mode using a Sciex API5500 Mass Spectrometer.
(§2) The expression of hEPO in rats intravenously administered a nanoparticle composition at a dose of 0.2 mpk or 2.0 mpk was measured at 6 hours. […] Liver and spleen levels represent the average values calculated for 3 rats in each group.
(§3) The expression of hEPO and lipid levels in the liver and spleen in rats intravenously administered a nanoparticle composition at a dose of 0.2 mpk was measured at various timepoints. […] Lipids were formulated according to the standard MC3 formulation described above.

[2] = Encapsulation efficiency of RNA, QUANT-IT RIBOGREEN RNA assay; type: physicochemical; settings: Table 1A formulations
From the text: The efficiency of encapsulation of a therapeutic and/or prophylactic describes the amount of therapeutic and/or prophylactic that is encapsulated or otherwise associated with a nanoparticle composition after preparation, relative to the initial amount provided. The encapsulation efficiency is desirably high (e.g., close to 100%). The encapsulation efficiency may be measured, for example, by comparing the amount of therapeutic and/or prophylactic in a solution containing the nanoparticle composition before and after breaking up the nanoparticle composition with one or more organic solvents or detergents. Fluorescence may be used to measure the amount of free therapeutic and/or prophylactic (e.g., RNA) in a solution. For the nanoparticle compositions described herein, the encapsulation efficiency of a therapeutic and/or prophylactic may be at least 50%, for example 50%, 55%, 60%, 65%, 70%, 75%, 80%, 85%, 90%, 91%, 92%, 93%, 94%, 95%, 96%, 97%, 98%, 99%, or 100%. In some embodiments, the encapsulation efficiency may be at least 80%. In certain embodiments, the encapsulation efficiency may be at least 90%.
For nanoparticle compositions including an RNA, a QUANT-IT™ RIBOGREEN® RNA assay (Invitrogen Corporation Carlsbad, Calif.) can be used to evaluate the encapsulation of an RNA by the nanoparticle composition. The samples are diluted to a concentration of approximately 5 μg/mL in a TE buffer solution (10 mM Tris-HCl, 1 mM EDTA, pH 7.5). 50 μL of the diluted samples are transferred to a polystyrene 96 well plate and either 50 μL of TE buffer or 50 μL of a 2% Triton X-100 solution is added to the wells. The plate is incubated at a temperature of 37° C. for 15 minutes. The RIBOGREEN® reagent is diluted 1:100 in TE buffer, and 100 μL of this solution is added to each well. The fluorescence intensity can be measured using a fluorescence plate reader (Wallac Victor 1420 Multilablel Counter; Perkin Elmer, Waltham, Mass.) at an excitation wavelength of, for example, about 480 nm and an emission wavelength of, for example, about 520 nm. The fluorescence values of the reagent blank are subtracted from that of each of the samples and the percentage of free RNA is determined by dividing the fluorescence intensity of the intact sample (without addition of Triton X-100) by the fluorescence value of the disrupted sample (caused by the addition of Triton X-100).

[3] = Residual lipid level in spleen of rats (UPLC-MS quantification); type: in vivo; settings: rat, iv, 48 hours, read-out: Spleen level
Description: as §1, §2, §3

[4] = Particle size, polydispersity index (and zeta potential) of nanoparticle compositions, Zetasizer Nano ZS; type: physicochemical; settings: Table 1A formulations
From the text: Nanoparticle compositions may be characterized by a variety of methods. For example, microscopy (e.g., transmission electron microscopy or scanning electron microscopy) may be used to examine the morphology and size distribution of a nanoparticle composition. Dynamic light scattering or potentiometry (e.g., potentiometric titrations) may be used to measure zeta potentials. Dynamic light scattering may also be utilized to determine particle sizes. Instruments such as the Zetasizer Nano ZS (Malvern Instruments Ltd, Malvern, Worcestershire, UK) may also be used to measure multiple characteristics of a nanoparticle composition, such as particle size, polydispersity index, and zeta potential.
A Zetasizer Nano ZS (Malvern Instruments Ltd, Malvern, Worcestershire, UK) can be used to determine the particle size, the polydispersity index (PDI) and the zeta potential of the nanoparticle compositions in 1×PBS in determining particle size and 15 mM PBS in determining zeta potential.

[5] = Lipid clearance: % dose remaining in liver after administration of Luc formulations; type: in vivo, mice; settings: Table 3D

Structure (SMILES): CCCCCCCCC(CC)OC(=O)CCCCCCCN(CCO)CCCCCCCC(=O)OC(CCCCCCCC)CCCCCCCC (centres unmarked) [Compound 49, heptadecan-9-yl 8-((2-hydroxyethyl)(8-oxo-8-(undecan-3-yloxy)octyl)amino)octanoate]
- concentration at 48 h ([1]; 0.2 mg/kg, 0.2 mpk): 6490 ng/g
- concentration at 48 h ([1]; 2 mg/kg, 2 mpk): 61400 ng/g
- EE (%) [2]: 96.86%
- concentration at 48 h ([3]; 0.2 mg/kg, 0.2 mpk): 0.36
- concentration at 48 h ([3]; 2 mg/kg, 2 mpk): 0.37
- PDI [4]: 0.110

Structure (SMILES): CCCC/C=C\CCC(CC/C=C\CCCC)OC(=O)CCCCCCCN(CCO)CCCCCC(=O)OCCCCCCCCCCC [Compound 61, (5Z,12Z)-heptadeca-5,12-dien-9-yl 8-((2-hydroxyethyl)(6-oxo-6-(undecyloxy)hexyl)amino)octanoate]
- EE (%) [2]: 97.2%
- PDI [4]: 0.11

Structure (SMILES): CCCCCCCCC(CC)OC(=O)CCCN(CCO)CCCCCCCC(=O)OC(CCCCCCCC)CCCCCCCC (centres unmarked) [Compound 72, Heptadecan-9-yl 8-((2-hydroxyethyl)(4-oxo-4-(undecan-3-yloxy)butyl)amino)octanoate]
- EE (%) [2]: 97.3%
- PDI [4]: 0.11

Structure (SMILES): CCCCCCCCC(CC)OC(=O)CCCCCN(CCO)CCCCCCCC(=O)OC(CCCCCCCC)CCCCCCCC (centres unmarked) [Compound 75, Heptadecan-9-yl 8-((2-hydroxyethyl)(6-oxo-6-(undecan-3-yloxy)hexyl)amino)octanoate]
- EE (%) [2]: 98.1%
- PDI [4]: 0.10

Structure (SMILES): CCCCCCCCCC(=O)OCCCCCCCN(CCO)CCCCCCCC(=O)OC(CCCCCCCC)CCCCCCCC [Compound 96, 7-((8-(Heptadecan-9-yloxy)-8-oxooctyl)(2-hydroxyethyl)amino)heptyl decanoate]
- % Dose Remaining in Liver 6h ([5]; first column of this head): <1%
- % Dose Remaining in Liver 6h ([5]; second column of this head): <1%

Structure (SMILES): CCCCCCCCCOC(=O)CCCCCCCN(CCCCCCCC(=O)OC(CCCCCCCC)CCCCCCCC)CCCNC(=O)N(C)C [Compound 110, Heptadecan-9-yl 8-((3-(3,3-dimethylureido)propyl)(8-(nonyloxy)-8-oxooctyl)amino)octanoate]
- EE (%) [2]: 97.4%
- PDI [4]: 0.13

Structure (SMILES): CCCCCCCCCOC(=O)CCCCCCCN(CCCCCCCC(=O)OC(CCCCCCCC)CCCCCCCC)CCCNC(=S)N(C)C [Compound 111, Heptadecan-9-yl 8-((3-(3,3-dimethylthioureido)propyl)(8-(nonyloxy)-8-oxooctyl)amino)octanoate]
- EE (%) [2]: 98.2%
- PDI [4]: 0.14

Structure (SMILES): CCCCCCCCCOC(=O)CCCCCCCN(CCCCCCCC(=O)OC(CCCCCCCC)CCCCCCCC)CCCNC(=S)NC [Compound 113, Heptadecan-9-yl 8-((3-(3-methylthioureido)propyl)(8-(nonyloxy)-8-oxooctyl)amino)octanoate]
- EE (%) [2]: 99%
- PDI [4]: 0.15

Structure (SMILES): CCCCCCCCC(CCCCCCCC)OC(=O)CCCCCCCN(CCO)CCCCCC(=O)OC(CCCCCCCC)C1CC1 (centres unmarked) [Compound 128, Heptadecan-9-yl 8-((6-((1-cyclopropylnonyl)oxy)-6-oxohexyl)(2-hydroxyethyl)amino)octanoate]
- EE (%) [2]: 98.2%
- PDI [4]: 0.14

Structure (SMILES): CCCCCCCCC(CCCCCCCC)OC(=O)CCCCCCCN(CCO)CCCCCCCC(=O)OCC(CCCCCCC)OC (centres unmarked) [Compound 148, Heptadecan-9-yl 8-((2-hydroxyethyl)(8-((2-methoxynonyl)oxy)-8-oxooctyl)amino)octanoate]
- % Dose Remaining in Liver 6h ([5]; first column of this head): <1%
- % Dose Remaining in Liver 6h ([5]; second column of this head): <1%

Structure (SMILES): CCCCCCCCC(CCCCCCCC)OC(=O)CCCCCCCN(C)CCCCCCCCCCCC(=O)OCCCCC [Compound 150, Pentyl 12-((8-(heptadecan-9-yloxy)-8-oxooctyl)(methyl)amino)dodecanoate]
- % Dose Remaining in Liver 6h ([5]; first column of this head): <1%
- % Dose Remaining in Liver 6h ([5]; second column of this head): <1%

Structure (SMILES): CCCCCCCCCC(=O)OCCCCCCCN(CCO)CCCCCCCOC(=O)C(CCCCCCCC)CCCCCCCC [Compound 151, 7-((7-(Decanoyloxy)heptyl)(2-hydroxyethyl)amino)heptyl 2-octyldecanoate]
- % Dose Remaining in Liver 6h ([5]; first column of this head): <1%
- % Dose Remaining in Liver 6h ([5]; second column of this head): <1%

Structure (SMILES): CCCCCCCCCOC(=O)CCCCCCCN(CCO)CCCCCCCCCC(CCCCCCCC)CCCCCCCC [Compound 153, Nonyl 8-((2-hydroxyethyl)(10-octyloctadecyl)amino)octanoate]
- % Dose Remaining in Liver 6h ([5]; first column of this head): <1%
- % Dose Remaining in Liver 6h ([5]; second column of this head): <1%

Structure (SMILES): CCCCCCCCCOC(=O)CCCCCCCN(CCCCCCCC(=O)OC(CCCCCCCC)CCCCCCCC)C(CO)CO [Compound 156, Heptadecan-9-yl 8-((1,3-dihydroxypropan-2-yl)(8-(nonyloxy)-8-oxooctyl)amino)octanoate]
- EE (%) [2]: 98.90%
- PDI [4]: 0.072

Structure (SMILES): CCCCCCCCCOC(=O)CCCCCCCN(CCCCCCCC(=O)OC(CCCCCCCC)CCCCCCCC)C(C)CO (centres unmarked) [Compound 157, Heptadecan-9-yl 8-((1-hydroxypropan-2-yl)(8-(nonyloxy)-8-oxooctyl)amino)octanoate]
- % Dose Remaining in Liver 6h ([5]; first column of this head): <1%
- % Dose Remaining in Liver 6h ([5]; second column of this head): <1%
- PDI [4]: 0.096

Structure (SMILES): CCCCCCCCCOC(=O)CCCCCCCN(CCCCCCCC(=O)OC(CCCCCCCC)CCCCCCCC)CCCNc1c(N(C)C)c(=O)c1=O [Compound 169, Heptadecan-9-yl 8-((3-((2-(dimethylamino)-3,4-dioxocyclobut-1-en-1-yl)amino)propyl)(8-(nonyloxy)-8-oxooctyl)amino)octanoate]
- EE (%) [2]: 99.04%
- PDI [4]: 0.18

Structure (SMILES): CCCCCCCCCOC(=O)CCCCCCCN(CCCCCCCC(=O)OC(CCCCCCCC)CCCCCCCC)CCCN/C(=C/[N+](=O)[O-])NC [Compound 170, Heptadecan-9-yl (E)-8-((3-((1-(methylamino)-2-nitrovinyl)amino)propyl)(8-(nonyloxy)-8-oxooctyl)amino)octanoate]
- EE (%) [2]: 98.24%
- PDI [4]: 0.12

Structure (SMILES): CCCCCCCCCOC(=O)CCCCCCCN(CCCCCCCC(=O)OC(CCCCCCCC)CCCCCCCC)CCCN1C(=O)CNC1=O [Compound 174, Heptadecan-9-yl 8-((3-(2,5-dioxoimidazolidin-1-yl)propyl)(8-(nonyloxy)-8-oxooctyl)amino)octanoate]
- EE (%) [2]: 98.52%
- PDI [4]: 0.12
